Source: patent publication EP2057185B1, “POLYMYXIN DERIVATIVES AND USES THEREOF” (Northern Antibiotics Oy, priority 2006, dated 2008)
Bridge positions count the residues as written; N and C are the ends. Square brackets hold non-standard residues; d marks the D form. Peptide text beside a SMILES is read from it. * marks the point of attachment. Octanoyl = CCCCCCCC(=O)*; Dab = NCC[C@H](N)C(=O)O; Abu = CC[C@H](N)C(=O)O

Columns and labels:
[1] = test system: P. vulgaris ATCC13315; assay: MIC by E-strips on Mueller-Hinton agar with or without NAB7061 (4 µg/ml); type: cell-based
Experimental: (§1) MICs were determined by using E-strips (Biodisk Ltd., Solna, Sweden) according to the manufacturer's instructions.
(§2) The strains originated from ATCC (11 strains), CCUG (11 strains), and NCTC (The National Collection of Type Cultures, Colindale, U.K.; 2 strains). Eight strains (the F-strains) were purchased from Mobidiag Ltd., Helsinki, Finland.

[2] = test system: S. maltophilia ATCC17444; assay: as above; type: cell-based
Experimental: as §1, §2

[3] = test system: E. coli IH3080 (K1:O18); assay: Experimental E. coli peritonitis model in mice; type: in vivo; settings: peritoneal fluid; 5 mg/kg body weight subcutaneous at 1 h; […] after the treatment
Experimental: A suspension of E. coli IH3080 (K1:O18) in saline (0.9% NaCl) was prepared from an overnight culture on a blood agar plate (Statens Serum Institut, Copenhagen, Denmark). All mice (female NMR1 from Harlan Scandinavia, Aller⌀d, Denmark; weight, 25-30 g) were inoculated intraperitoneally with 0.5 ml of the suspension containing 0.96 x 10^6 CFU per ml in the lateral lower quadrant of the abdomen. At 1 h, the CFU count was determined from three mice and the remaining mice (four mice per group) were treated with a subcutaneous injection of 0.2 ml of erythromycin solution in saline (corresponding to 5 mg/kg body weight) or NAB7061 solution in saline (corresponding to 5 mg/kg body weight), or both erythromycin and NAB7061 (corresponding to 5 mg/kg body weight of both drugs; given at two separate sites). Control group received two 0.2 ml injections of saline. At 4.5 h postinfection, all mice were anaesthetized with CO2 and sacrificed. Sterile saline (2 ml) was injected intraperitoneally and the abdomen was gently massaged before it was opened and the fluid sampled. Appropriate dilutions of the fluid were plated on blood agar plates, the plates were incubated overnight, and the colonies were counted.

For CCCCCCCC(=O)N[C@H](C(=O)N[C@@H](CC)C(=O)N[C@H]1CCNC(=O)[C@H]([C@@H](C)O)NC(=O)[C@H](CCN)NC(=O)[C@H](CCN)NC(=O)[C@H](CC(C)C)NC(=O)[C@@H](Cc2ccccc2)NC(=O)[C@H](CCN)NC1=O)[C@@H](C)O [NAB 7061, OA-Thr-Abu-cy[Dab-Dab-DPhe-Leu-Dab-Dab-Thr-]] (Octanoyl-T[Abu][Dab][Dab][dF]L[Dab][Dab]T; lactam 3-C), the “MIC (µg/ml) of clarithromycin in the presence of 4 µg/ml of NAB 7061” value [1] was […], the “MIC (µg/ml) of rifampin in the presence of 4 µg/ml of NAB 7061” value [1] was 1-1,5 µg/ml and the “Sensitization factor to clarithromycin” value ([1]; 4 µg/ml of NAB 7061) was <2. For the same compound, the “Sensitization factor to rifampin” value ([1]; 4 µg/ml of NAB 7061) was <2, the “MIC (µg/ml) of clarithromycin in the presence of 4 µg/ml of NAB 7061” value [2] was […] and the “MIC (µg/ml) of rifampin in the presence of 4 µg/ml of NAB 7061” value [2] was […]. For the same compound, the “Sensitization factor to clarithromycin” value ([2]; 4 µg/ml of NAB 7061) was […], the “Sensitization factor to rifampin” value ([2]; 4 µg/ml of NAB 7061) was […] and the “CFU counts (per ml) at 4.5 h postinfection” value [3] was 1.1 (± 0.6) x 10^6 per ml.
